These results are taken from patent US9249163B2, “PDE10a inhibitors for the treatment of type II diabetes” (Janssen Pharmaceutica, NV, priority 2013, dated 2016).

The target of series [1] is Rat recombinant PDE10a (rPDE10a) (Rattus norvegicus (Rat), UniProt Q9QYJ6). The series is described as follows: In vitro assay PDE10a (rat recombinant PDE10a, SPA). The settings on record: 60 nM cAMP, 60 min at rt, read-out: rPDE10a2 IC50. Format: biochemical. The method, boiled down:
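Rat PDE10a expressed in Sf9 cells (baculovirus) and Ni-sepharose purified. Incubated with compound for 60 min at rt in 50 mM Tris pH 7.8, 8.3 mM MgCl2, 1.7 mM EGTA with 60 nM cAMP plus 0.008 μCi ^3H-cAMP (final), 1% DMSO. Read-out by PDE SPA bead scintillation counting (cpm), no-enzyme blank.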

Series [2] deals with Human recombinant PDE10A2 (Homo sapiens (Human), UniProt Q9Y233). Description: In vitro hPDE10a (human recombinant PDE10A2, scintillation proximity assay). The format is biochemical. Particulars: human recombinant PDE10A2, 60 nM cAMP, 60 min at room temperature; read-out: hPDE10a2 IC50. For orientation: SPA uses beads or plates that emit light when radiolabelled molecules are held near them.
Sequence of Human recombinant PDE10A2 (Q9Y233 267-1055): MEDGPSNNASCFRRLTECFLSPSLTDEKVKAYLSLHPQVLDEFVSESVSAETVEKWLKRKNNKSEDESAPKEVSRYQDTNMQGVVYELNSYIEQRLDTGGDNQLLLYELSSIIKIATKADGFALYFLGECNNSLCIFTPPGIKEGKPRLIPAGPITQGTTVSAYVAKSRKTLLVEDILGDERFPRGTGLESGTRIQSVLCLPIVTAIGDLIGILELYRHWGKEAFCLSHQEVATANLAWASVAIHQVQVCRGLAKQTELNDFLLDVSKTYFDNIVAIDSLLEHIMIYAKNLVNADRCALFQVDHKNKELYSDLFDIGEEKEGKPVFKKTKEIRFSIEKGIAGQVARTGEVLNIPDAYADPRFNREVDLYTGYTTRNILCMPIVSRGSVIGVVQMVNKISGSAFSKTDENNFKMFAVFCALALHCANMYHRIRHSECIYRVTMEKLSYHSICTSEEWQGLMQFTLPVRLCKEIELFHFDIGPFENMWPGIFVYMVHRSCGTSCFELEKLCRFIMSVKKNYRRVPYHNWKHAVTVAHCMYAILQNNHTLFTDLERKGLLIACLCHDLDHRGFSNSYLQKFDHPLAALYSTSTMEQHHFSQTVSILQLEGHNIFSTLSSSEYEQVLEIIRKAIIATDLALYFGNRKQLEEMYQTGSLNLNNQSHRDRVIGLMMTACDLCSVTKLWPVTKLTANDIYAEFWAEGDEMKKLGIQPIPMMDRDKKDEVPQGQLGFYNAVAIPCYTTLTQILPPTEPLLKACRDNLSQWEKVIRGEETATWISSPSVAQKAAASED

A short description of series [3]: PDE10a-perfused brain permeability study (plasma and brain concentrations). The settings on record: male, Sprague-Dawley, rat; for Kp at 2 h: brain/plasma.
Description: Drug administration by oral gavage, subcutaneous injection or intravenous was carried out using male Sprague Dawley rats under IACUC protocol (SH-MET3010). Male Sprague Dawley rats (Charles River) ˜300-350 g were maintained on a 4% standard rodent diet (Test Diet 5001). They are allowed ad libitum access to water and food. Room temperature was maintained at 64° F. and humidity at 30-70%.
Three animals per compound were provided a dose of 2 mg/mL in 20% HpbCD/Tris pH 8 by tail i.v. or 30 mpk p.o. or s.c. in 20% HpbCD/Tris pH 8, with PDE10a antagonists. A first blood sample was collected at 30 min via retro-orbital sinus (anesthetic by 70% CO2/30% O2) into heparinzed plasma separator tubes. The blood was centrifuged and 100 uL plasma was placed into a 96 well plate and saved on dry ice.
After the 120 min, the final blood sample was collected via retro-orbital sinus under anesthesia by IP 0.5 cc injection of a 4/1 mixture of Ketaset: AnaSed [(prepared 10 mL Ketaset (100 mg/mL Ketamine)+2.5 mL AnaSed (20 mg/mL Xylazine)]. The rats were then perfused with 400 mL heparinized saline (10,000 units/L) through the left ventricle of the heart; the brains were then removed (not including the medulla), weighed and homogenized in PBS (4 mL/g tissue). The samples were stored at −80° C. and submitted for chemical analysis of blood and brain concentrations. Endpoints of sample analysis consists of the plasma concentrations at 30 and 120 min, plus brain concentrations at 120 min.

pIC50: −log10 of the molar value. Counter-ions that a name gives are not always drawn.

Sequence of Rat recombinant PDE10a (rPDE10a) (Q9QYJ6 whole entry): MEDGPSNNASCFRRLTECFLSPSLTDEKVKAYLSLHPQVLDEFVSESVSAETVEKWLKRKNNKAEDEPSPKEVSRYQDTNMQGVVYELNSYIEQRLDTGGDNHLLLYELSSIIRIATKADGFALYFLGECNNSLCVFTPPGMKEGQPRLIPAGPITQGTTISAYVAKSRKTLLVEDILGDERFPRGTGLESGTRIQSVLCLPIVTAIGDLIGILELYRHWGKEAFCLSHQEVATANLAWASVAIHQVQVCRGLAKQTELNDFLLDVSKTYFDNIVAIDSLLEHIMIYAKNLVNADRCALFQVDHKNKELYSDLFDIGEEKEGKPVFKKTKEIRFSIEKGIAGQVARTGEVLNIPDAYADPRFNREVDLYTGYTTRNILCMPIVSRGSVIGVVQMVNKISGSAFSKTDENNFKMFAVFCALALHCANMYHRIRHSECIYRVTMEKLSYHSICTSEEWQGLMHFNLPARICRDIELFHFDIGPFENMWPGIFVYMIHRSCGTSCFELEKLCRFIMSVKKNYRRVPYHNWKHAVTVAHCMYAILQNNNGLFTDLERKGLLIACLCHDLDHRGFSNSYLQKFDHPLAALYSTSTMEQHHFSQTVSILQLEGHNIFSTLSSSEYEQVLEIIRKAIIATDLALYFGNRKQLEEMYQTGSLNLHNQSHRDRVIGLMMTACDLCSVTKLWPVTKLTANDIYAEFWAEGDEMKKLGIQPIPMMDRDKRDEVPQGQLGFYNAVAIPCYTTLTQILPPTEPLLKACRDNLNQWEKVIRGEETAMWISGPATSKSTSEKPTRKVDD

With `c1ccc2nc(OCc3cn4c(-c5ccc(N6CCNCC6)nc5)cnc(-c5ccc6nc[nH]c6c5)c4n3)ccc2c1` [Cpd 119, 2-((8-(1H-Benzo[d]imidazol-6-yl)-5-(6-(piperazin-1-yl)pyridin-3-yl)imidazo[1,2-a]pyrazin-2-yl)methoxy)quinoline trifluoroacetic acid salt], the pIC50 (as a rule, −log10 of the IC50, conventionally taken in molar units) was 7.59 in series [1] and 7.27 in series [2]. The concentration at 2 h worked out at 108 ng/g in series [3] (brain) and 53.8 ng/mL in series [3] (plasma). Moreover, the partition ratio (Kp) – broadly, the ratio of the level in a tissue or fluid to that in plasma or blood – at 2 h in series [3] turned out to be 2.99.

`c1ccc2nc(OCc3cn4c(-c5cnc(N6CCNCC6)nc5)cnc(N5CCOCC5)c4n3)ccc2c1` [Cpd 121, 4-(5-(2-(Piperazin-1-yl)pyrimidin-5-yl)-2-((quinolin-2-yloxy)methyl)imidazo[1,2-a]pyrazin-8-yl)morpholine methane sulfonic acid salt]: the pIC50 is 7.08 in series [1] and 7.23 in series [2]. Moreover, the concentration at 2 h in series [3] (brain) was found to be 81.5 ng/g; in series [3] (plasma) it was 55.1 ng/mL. Further, the Kp at 2 h in series [3] was found to be 1.55.

As to `c1ccc2nc(OCc3cn4c(-c5ccc(N6CCNCC6)nc5)cnc(N5CCOCC5)c4n3)ccc2c1` [Cpd 126, 4-(5-(6-(piperazin-1-yl)pyridin-3-yl)-2-((quinolin-2-yloxy)methyl)imidazo[1,2-a]pyrazin-8-yl)morpholine methane sulfonic acid salt], the pIC50 in series [1] is 7.89; in series [2], 7.47. In addition, the concentration at 2 h in series [3] (brain) worked out at 49.3 ng/g; in series [3] (plasma), 22.4 ng/mL. For the same molecule, the Kp at 2 h in series [3] stood at 2.26.

On to `O=C(O)CN1CCC(c2cnc(N3CCOCC3)c3nc(COc4ccc5ccccc5n4)cn23)CC1` [Cpd 110, 2-(4-(8-Morpholino-2-((quinolin-2-yloxy)methyl)imidazo[1,2-a]pyrazin-5-yl)piperidin-1-yl)acetic acid trifluoroacetic acid salt], for which the pIC50 was 6.54 in series [1] and 6.39 in series [2]. Also, the results for the concentration at 2 h in series [3] (brain) and in series [3] (plasma) were 0 ng/g and 4.63 ng/mL, respectively. The molecule further registered a Kp at 2 h in series [3] of 0.

Consider `c1cncc(-c2cnc(N3CCOCC3)c3nc(COc4ccc5ccccc5n4)cn23)c1` [Cpd 129, 4-(5-(Pyridin-3-yl)-2-((quinolin-2-yloxy)methyl)imidazo[1,2-a]pyrazin-8-yl)morpholine methane sulfonic acid salt], for which the pIC50 in series [1] is 7.57; in series [2], 7.51. In addition, the concentration at 2 h in series [3] (brain) was found to be 21.9 ng/g; in series [3] (plasma), 11 ng/mL. This molecule came in with a Kp at 2 h in series [3] of 2.07.
